Source: patent US7192731B2, “Methods for efficient extraction of carotenoids using an esterase” (The State of Israel, Ministry of Agriculture & Rural …, priority 2001, dated 2007)

B1: pancreatic lipase: pancreatic lipase from porcine, Sigma (protein, UniProt P00591 1-450, looked up)
Pancreatic triacylglycerol …: SEVCFPRLGCFSDDAPWAGIVQRPLKILPWSPKDVDTRFLLYTNQNQNNYQELVADPSTITNSNFRMDRKTRFIIHGFIDKGEEDWLSNICKNLFKVESVNCICVDWKGGSRTGYTQASQNIRIVGAEVAYFVEVLKSSLGYSPSNVHVIGHSLGSHAAGEAGRRTNGTIERITGLDPAEPCFQGTPELVRLDPSDAKFVDVIHTDAAPIIPNLGFGMSQTVGHLDFFPNGGKQMPGCQKNILSQIVDIDGIWEGTRDFVACNHLRSYKYYADSILNPDGFAGFPCDSYNVFTANKCFPCPSEGCPQMGHYADRFPGKTNGVSQVFYLNTGDASNFARWRYKVSVTLSGKKVTGHILVSLFGNEGNSRQYEIYKGTLQPDNTHSDEFDSDVEVGDLQKVKFIWYNNNVINPTLPRVGASKITVERNDGKVYDFCSQETVREEVLLTLNPC

What was measured:
lipase = assay: Effect of CaCl2 and NaCl on lipase activity (deestrification of red-pepper carotenoids); format: biochemical; settings: 150 mM NaCl without CaCl2
Procedure: The activity of lipase at pH 7.6 at 37.0° C. for 18 hours on the deestrification of red-pepper carotenoids was measured in the presence of CaCl2 and NaCl.

[1] = Enzymatic deesterification of paprika oleoresin carotenoids by lipases, HPLC; format: biochemical; settings: similar assays, 37° C.
Procedure: HPLC was conducted on a Shimadzu LC-10 AT equipped with SCL-10A Shimadzu diode array detector. Photodiode array measurements of spectral properties from the individual peaks (from 260 to 540 nm) were determined at the upslope, apex and downslope. The column (Merck RP-18e 3.4×250 […], 5-μm particles) was used for HPLC separations. The peaks were detected at 450 and 474 nm.
Paprika oleoresin (20 mg) was mixed with TWEEN-20 (200 μl) or deoxycholate (100 mg) and 10 ml of H2O. The emulsion has been shaken at 37° C. for 24 hours. Extraction of carotenoids was performed by the addition of 4 ml of ethanol and 5 ml of hexane. The extraction with hexane was done repeatedly until no color could be observed in the extracts. The combined hexane extracts were washed with water (25 ml) and dried over anhydrous sodium sulfate for HPLC determination of the carotenoids.
Immobilized lipase from Candida rugosa (Sigma-Aldrich Corp., St Louis, Mo.). Following use in deesterification, the enzyme-bearing beads are recovered by precipitation at 15 K RPM, and stored at 4° C. until reuse.
Immobilized lipase beads may be recycled by precipitation, and reused. […] FIG. 8 compares the efficiency of deesterification with fresh, once-, and twice-recycled immobilized lipase, quantifying the efficient reuse of the immobilized enzyme with paprika oleoresin. […]

| Molecule | deestrification (lipase) [%] | deesterification of paprika carotenoids compared with lipase amano 30 [1] |
| --- | --- | --- |
| [Cl-].[Na+] [NaCl] | 87 | – |
| B1 | – | far poorer results |
